# Structures can show the parent of a compound that is named as a salt. Where two headings read alike, the source gives them in different places.
# Key:
# Assay type in all cases: biochemical
# [1] = target: T1, recombinant PRL-2 (Homo sapiens, UniProt Q12974); assay: In vitro phosphatase assay (DiFMUP hydrolysis), PRL-2;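 also: PRL-2 activity read as DiFMUP hydrolysis after 20 min at room temperature with drug, enzyme first pre-reduced at 4 °C for 20 min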
# T1 construct: 6xHis (N, cleaved yes); made in house; host or cells: E. coli One Shot BL21 Star
# T1 sequence (Q12974 1-167): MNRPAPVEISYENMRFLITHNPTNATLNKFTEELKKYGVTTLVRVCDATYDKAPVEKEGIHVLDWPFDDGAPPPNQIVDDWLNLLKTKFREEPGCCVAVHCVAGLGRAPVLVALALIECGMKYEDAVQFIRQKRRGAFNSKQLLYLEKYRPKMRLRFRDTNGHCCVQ
# [2] = target: T2, recombinant PRL-3 (Homo sapiens, UniProt O75365); assay: In vitro phosphatase assay (DiFMUP hydrolysis), PRL-3
# T2 construct: 6xHis (N, cleaved yes); made in house; host or cells: E. coli One Shot BL21 Star
# T2 sequence (O75365 whole entry): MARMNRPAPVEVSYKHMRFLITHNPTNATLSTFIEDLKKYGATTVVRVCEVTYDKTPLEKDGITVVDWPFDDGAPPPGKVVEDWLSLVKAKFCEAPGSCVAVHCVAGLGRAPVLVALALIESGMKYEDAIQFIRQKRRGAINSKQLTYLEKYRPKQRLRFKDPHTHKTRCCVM
# Experimental: Briefly, protein was diluted in reaction buffer and allowed to incubate at 4 °C for 20 min to allow for full reduction of the active site. DiFMUP, drug, and protein were added, and plates were incubated for 20 min at room temperature. Fluorescence intensities were measured on a Cytation 5 plate reader (Biotek) at an EX:360 nm and EM:460 nm. […] Inhibition selectivity for PRLs over a panel of other phosphatases was determined using PhosphataseProfiler (Eurofins, Cat # PP260).
# [3] = target: T3, recombinant PRL-1 (Homo sapiens, UniProt Q93096); assay: In vitro phosphatase assay (DiFMUP hydrolysis), PRL-1
# T3 construct: 6xHis (N, cleaved yes); made in house; host or cells: E. coli One Shot BL21 Star
# T3 sequence (Q93096 1-173): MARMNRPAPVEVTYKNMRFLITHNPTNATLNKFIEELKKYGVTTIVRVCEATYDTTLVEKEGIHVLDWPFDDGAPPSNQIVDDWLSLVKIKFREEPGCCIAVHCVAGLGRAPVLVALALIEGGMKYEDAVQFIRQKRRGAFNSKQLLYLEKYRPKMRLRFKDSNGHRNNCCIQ
# [4] = FDA-approved drug screen, compared to DMSO
Structure (SMILES),"% Phosphatase Activity (compared to DMSO) PRL-2 [1, 4]","% Phosphatase Activity (compared to DMSO) PRL-3 [2, 4]","% Phosphatase Activity (compared to DMSO) PRL-1 [3, 4]",% Phosphatase Activity (compared to DMSO) PRL-2 [1],"IC50 ([1]; 2.5 µM protein, DiFMUP at KM, read-out: Calculated IC50, PRL-2 phosphatase activity)",% Phosphatase Activity (compared to DMSO) PRL-3 [2],"IC50 ([2]; 2.5 µM protein, DiFMUP at KM, read-out: Calculated IC50, PRL-3 phosphatase activity)",% Phosphatase Activity (compared to DMSO) PRL-1 [3],"IC50 ([3]; 2.5 µM protein, DiFMUP at KM, read-out: Calculated IC50, PRL-1 phosphatase activity)"
CN(C)CCOC(c1ccccc1)c1ccccc1 [Diphenhydramine HCl],108%,111%,113%,,,,,,
OC(CCCN1CCCCC1)(c1ccccc1)c1ccccc1 [Diphenidol HCl],115%,89%,102%,,,,,,
CN1CCC(OC(c2ccccc2)c2ccccc2)CC1 [Diphenylpyraline HCl],100%,98%,97%,,,,,,
OCCN(CCO)c1nc(N2CCCCC2)c2nc(N(CCO)CCO)nc(N3CCCCC3)c2n1 [Dipyridamole],258%,219%,182%,,,,,,
CC[C@H]1OC(=O)[C@H](C)[C@@H](O[C@H]2C[C@@](C)(OC)[C@@H](O)[C@H](C)O2)[C@H](C)[C@@H](O[C@@H]2O[C@H](C)C[C@H](N(C)C)[C@H]2O)[C@](C)(O)C[C@@H](C)[C@@H]2N[C@@H](COCCOC)O[C@H]([C@H]2C)[C@]1(C)O [Dirithromycin],94%,74%,90%,,,,,,
O=C([O-])c1cc(=O)c2c(OCC(O)COc3cccc4oc(C(=O)[O-])cc(=O)c34)cccc2o1.[Na+].[Na+] [Disodium Cromoglycate],78%,93%,93%,,,,,,
CC(C)N(CCC(C(N)=O)(c1ccccc1)c1ccccn1)C(C)C (stereo not drawn) [Disopyramide Phosphate],107%,93%,94%,,,,,,
CCN(CC)C(=S)SSC(=S)N(CC)CC [Disulfiram],100%,78%,103%,,,,,,
CCCC(CCC)C(=O)O [Divalproex Sodium],94%,77%,105%,,,,,,
CC(=O)O[C@@]12CO[C@@H]1C[C@H](O)[C@@]1(C)C(=O)[C@H](O)C3=C(C)[C@@H](OC(=O)[C@H](O)[C@@H](NC(=O)OC(C)(C)C)c4ccccc4)C[C@@](O)([C@@H](OC(=O)c4ccccc4)[C@H]21)C3(C)C [Docetaxel Trihydrate],87%,90%,93%,,,,,,
CC(=O)O[C@@]12CO[C@@H]1C[C@H](O)[C@@]1(C)C(=O)[C@H](O)C3=C(C)[C@@H](OC(=O)[C@H](O)[C@@H](NC(=O)OC(C)(C)C)c4ccccc4)C[C@@](O)([C@@H](OC(=O)c4ccccc4)[C@H]21)C3(C)C [Docetaxel],88%,65%,87%,,,,,,
"CCCCC(CC)COC(=O)CC(C(=O)OCC(CC)CCCC)S(=O)(=O)O (stereo not drawn) [Docusate Sodium, reference compound]",,,,63%,140 ± 44 µM,34%,43 ± 5 µM,64%,94 ± 26 µM
C[C@@H]1CCO[C@H]2Cn3cc(C(=O)NCc4ccc(F)cc4F)c(=O)c(O)c3C(=O)N12 [Dolutegravir (GSK1349572)],101%,99%,105%,,,,,,
CCCCCCCCCCCC[N+](C)(C)CCOc1ccccc1 [Domiphen Bromide],104%,84%,106%,,,,,,
O=c1[nH]c2ccccc2n1CCCN1CCC(n2c(=O)[nH]c3cc(Cl)ccc32)CC1 [Domperidone],112%,79%,118%,,,,,,
NCCc1ccc(O)c(O)c1 [Dopamine HCl],,,,119%,,82%,,125%,
C[C@@H](O)[C@H]1C(=O)N2C(C(=O)O)=C(S[C@@H]3CN[C@H](CNS(N)(=O)=O)C3)[C@H](C)[C@H]12.O [Doripenem Hydrate],107%,69%,107%,,,,,,
CC(O)C(=O)O.CN1CCN(c2ccc3nc(-c4c(N)c5c(F)cccc5[nH]c4=O)[nH]c3c2)CC1 [Dovitinib (TKI258) Lactate],70%,85%,86%,,,,,,

# From article PMC8119466, “A screen of FDA-approved drugs identifies inhibitors of protein tyrosine phosphatase 4A3 (PTP4A3 or PRL-3)” (Scientific Reports, 2021)
